# Values of other authors, collected in publication PMC5742115, “Pharmacophore Modeling and in Silico/in Vitro Screening for Human Cytochrome P450 11B1 and Cytochrome P450 11B2 Inhibitors” (Frontiers in Chemistry, 2017).
# Tested on: CYP11B1
# Conditions: reported activity, supplementary Table 1; ref Meredith et al., 2013; read-out: CYP11B1 IC50; cited from earlier work
row,Compound,IC50 [nM]
1,N#Cc1ccc([C@H]2CCCCc3cncn32)c(-c2ccc(F)cc2)c1 [CHEMBL3099704],0.4
2,Cc1cc(C#N)ccc1[C@H]1CCc2cncn21 [CHEMBL3099696],0.9
3,N#Cc1ccc([C@@]2(C(=O)OCc3ccc(F)cc3)CCc3cncn32)c(Cl)c1 [CHEMBL3099689],0.1
4,N#Cc1ccc([C@H]2CCCCc3cncn32)c(F)c1 [CHEMBL3099683],1

# Same assay, conditions: reported activity, supplementary Table 1; ref Pinto-Bazurco Mendieta et al., 2013; read-out: CYP11B1 IC50; cited from earlier work
row,Compound,IC50 [nM]
1,Oc1cncc(-c2ccc3ccc(O)cc3c2Cl)c1 [CHEMBL2420684],2840
2,COc1ccc2ccc(-c3cccnc3)c(Cl)c2c1F [CHEMBL2420677],2940
3,COc1cncc(-c2ccc3ccc(OC)cc3c2Cl)c1 [CHEMBL2420681],447
4,COc1cncc(-c2ccc3ccc(O)cc3c2Cl)c1 [CHEMBL2420682],245
5,Oc1ccc2ccc(-c3cccnc3)c(Cl)c2c1F [CHEMBL2420678],224
6,Oc1ccc2ccc(-c3cncnc3)c(Cl)c2c1 [CHEMBL2420686],2430

# Same assay, conditions: reported activity, supplementary Table 1; ref Roumen et al., 2010; read-out: CYP11B1 IC50; cited from earlier work
row,Compound,IC50 [nM]
1,COC(=O)CCc1cncn1Cc1ccc(C#N)cc1 [CHEMBL591229],31
2,COC(=O)CCc1cncn1Cc1ccc(Br)cc1 [CHEMBL592614],57
3,COC(=O)OCc1cncn1Cc1ccc(C#N)cc1 [CHEMBL599222],213

# Same assay, conditions: reported activity, supplementary Table 1; ref Ulmschneider et al., 2005a; read-out: CYP11B1 IC50; cited from earlier work
row,Compound,IC50 [nM]
1,C(=C1/CCc2ccccc21)/c1cccnc1 [CHEMBL364080],888
2,CCOc1ccc2c(c1)CC/C2=C\c1cccnc1 [CHEMBL425323],2370
3,COc1ccc2c(c1)CC/C2=C/c1cccnc1 [CHEMBL176101],790
4,Fc1ccc2c(c1)CC/C2=C\c1cccnc1 [CHEMBL193997],311

# Same assay, conditions: reported activity, supplementary Table 1; ref Ulmschneider et al., 2005b; read-out: CYP11B1 IC50; cited from earlier work
row,Compound,IC50 [nM]
1,C(=C1\CCc2ccccc21)/c1cccnc1 [CHEMBL363621],87
2,N#Cc1ccc2c(c1)CC/C2=C/c1ncc[nH]1 [CHEMBL175091],12.3

# Same assay, conditions: reported activity, supplementary Table 1; ref Voets et al., 2005; read-out: CYP11B1 IC50; cited from earlier work
row,Compound,IC50 [nM]
1,c1ccc2cc(-n3ccnc3)ccc2c1 [CHEMBL195996],1320
2,COc1ccc2cc(-c3cccnc3)ccc2c1Br [CHEMBL196328],4480
3,c1ccc2cc(-c3cnco3)ccc2c1 [CHEMBL193653],805

# Same assay, conditions: reported activity, supplementary Table 1; ref Yin et al., 2012; read-out: CYP11B1 IC50; cited from earlier work
row,Compound,IC50 [nM]
1,CC(c1cc2c3c(c1)CCN3C(=O)CC2)n1ccnc1 (stereo not drawn) [CHEMBL2163636],17
2,O=C1CCc2cc(C(C3CC3)n3ccnc3)cc3c2N1CC3 (stereo not drawn) [CHEMBL2163639],2.2
3,COc1cccc(C(c2cc3c4c(c2)CCN4C(=O)CC3)n2ccnc2)c1 (stereo not drawn) [CHEMBL2163645],110
4,CCC(c1cc2c3c(c1)CCN3C(=O)CC2)n1ccnc1 (stereo not drawn) [CHEMBL2163637],6.5
5,O=C1CCc2cc(C(c3ccccc3)n3ccnc3)cc3c2N1CC3 (stereo not drawn) [CHEMBL2163649],50

# Same assay, conditions: reported activity, supplementary Table 1; ref Yin et al., 2013; read-out: CYP11B1 IC50; cited from earlier work
row,Compound,IC50 [nM]
1,O=C1CCc2cc(C(c3ccncc3)c3cccc(F)c3)cc3c2N1CC3 (stereo not drawn) [CHEMBL2312958],532
2,Cc1cccc(C(c2ccncc2)c2cc3c4c(c2)CCN4C(=O)CC3)c1 (stereo not drawn) [CHEMBL2312962],1340
3,O=C1CCc2cc(C(c3ccncc3)c3cccc(Cl)c3)cc3c2N1CC3 (stereo not drawn) [CHEMBL2312960],646

# Tested on: CYP11B2
# Conditions: reported activity, supplementary Table 1; ref Meredith et al., 2013; read-out: CYP11B2 IC50; cited from earlier work
row,Compound,IC50 [nM]
1,N#Cc1ccc([C@H]2CCCCc3cncn32)c(-c2ccc(F)cc2)c1 [CHEMBL3099704],0.3
2,Cc1cc(C#N)ccc1[C@H]1CCc2cncn21 [CHEMBL3099696],1.5
3,N#Cc1ccc([C@@]2(C(=O)OCc3ccc(F)cc3)CCc3cncn32)c(Cl)c1 [CHEMBL3099689],3.8
4,N#Cc1ccc([C@H]2CCCCc3cncn32)c(F)c1 [CHEMBL3099683],0.3

# Same assay, conditions: reported activity, supplementary Table 1; ref Pinto-Bazurco Mendieta et al., 2013; read-out: CYP11B2 IC50; cited from earlier work
row,Compound,IC50 [nM]
1,Oc1cncc(-c2ccc3ccc(O)cc3c2Cl)c1 [CHEMBL2420684],27
2,COc1ccc2ccc(-c3cccnc3)c(Cl)c2c1F [CHEMBL2420677],28
3,COc1cncc(-c2ccc3ccc(OC)cc3c2Cl)c1 [CHEMBL2420681],24
4,COc1cncc(-c2ccc3ccc(O)cc3c2Cl)c1 [CHEMBL2420682],15
5,Oc1ccc2ccc(-c3cccnc3)c(Cl)c2c1F [CHEMBL2420678],25
6,Oc1ccc2ccc(-c3cncnc3)c(Cl)c2c1 [CHEMBL2420686],22

# Same assay, conditions: reported activity, supplementary Table 1; ref Roumen et al., 2010; read-out: CYP11B2 IC50; cited from earlier work
row,Compound,IC50 [nM]
1,COC(=O)CCc1cncn1Cc1ccc(C#N)cc1 [CHEMBL591229],3.5
2,COC(=O)CCc1cncn1Cc1ccc(Br)cc1 [CHEMBL592614],4
3,COC(=O)OCc1cncn1Cc1ccc(C#N)cc1 [CHEMBL599222],44

# Same assay, conditions: reported activity, supplementary Table 1; ref Ulmschneider et al., 2005a; read-out: CYP11B2 IC50; cited from earlier work
row,Compound,IC50 [nM]
1,C(=C1/CCc2ccccc21)/c1cccnc1 [CHEMBL364080],11
2,CCOc1ccc2c(c1)CC/C2=C\c1cccnc1 [CHEMBL425323],79
3,COc1ccc2c(c1)CC/C2=C/c1cccnc1 [CHEMBL176101],26
4,Fc1ccc2c(c1)CC/C2=C\c1cccnc1 [CHEMBL193997],7

# Same assay, conditions: reported activity, supplementary Table 1; ref Ulmschneider et al., 2005b; read-out: CYP11B2 IC50; cited from earlier work
row,Compound,IC50 [nM]
1,C(=C1\CCc2ccccc21)/c1cccnc1 [CHEMBL363621],92
2,N#Cc1ccc2c(c1)CC/C2=C/c1ncc[nH]1 [CHEMBL175091],35.7

# Same assay, conditions: reported activity, supplementary Table 1; ref Voets et al., 2005; read-out: CYP11B2 IC50; cited from earlier work
row,Compound,IC50 [nM]
1,c1ccc2cc(-n3ccnc3)ccc2c1 [CHEMBL195996],39
2,COc1ccc2cc(-c3cccnc3)ccc2c1Br [CHEMBL196328],33
3,c1ccc2cc(-c3cnco3)ccc2c1 [CHEMBL193653],12

# Same assay, conditions: reported activity, supplementary Table 1; ref Yin et al., 2012; read-out: CYP11B2 IC50; cited from earlier work
row,Compound,IC50 [nM]
1,CC(c1cc2c3c(c1)CCN3C(=O)CC2)n1ccnc1 (stereo not drawn) [CHEMBL2163636],15
2,O=C1CCc2cc(C(C3CC3)n3ccnc3)cc3c2N1CC3 (stereo not drawn) [CHEMBL2163639],24
3,COc1cccc(C(c2cc3c4c(c2)CCN4C(=O)CC3)n2ccnc2)c1 (stereo not drawn) [CHEMBL2163645],88
4,CCC(c1cc2c3c(c1)CCN3C(=O)CC2)n1ccnc1 (stereo not drawn) [CHEMBL2163637],5.8
5,O=C1CCc2cc(C(c3ccccc3)n3ccnc3)cc3c2N1CC3 (stereo not drawn) [CHEMBL2163649],33

# Same assay, conditions: reported activity, supplementary Table 1; ref Yin et al., 2013; read-out: CYP11B2 IC50; cited from earlier work
row,Compound,IC50 [nM]
1,O=C1CCc2cc(C(c3ccncc3)c3cccc(F)c3)cc3c2N1CC3 (stereo not drawn) [CHEMBL2312958],88
2,Cc1cccc(C(c2ccncc2)c2cc3c4c(c2)CCN4C(=O)CC3)c1 (stereo not drawn) [CHEMBL2312962],41
3,O=C1CCc2cc(C(c3ccncc3)c3cccc(Cl)c3)cc3c2N1CC3 (stereo not drawn) [CHEMBL2312960],51
